Experimental data taken from ChEMBL document CHEMBL2176888, “Structure-activity relationships in human Toll-like receptor 8-active 2,3-diamino-furo[2,3-c]pyridines” (J Med Chem, 2012).
Values belong to the molecule of their own block, whether it stands above or below them. The source made the active and inactive calls. No cut-off for these calls is given here.

Experiments:
Format in all cases: functional, cell-based
Toll-like receptor 8 = molecular target: T1, Toll-like receptor 8 (Homo sapiens, UniProt Q9NR97); test: Agonist activity at human TLR8 expressed in HEK293 cells assessed as induction of NF-kappaB activity by measuring extracellular secreted alkaline phosphatase by HEK-blue reporter gene assay
T1 sequence (Q9NR97 whole entry): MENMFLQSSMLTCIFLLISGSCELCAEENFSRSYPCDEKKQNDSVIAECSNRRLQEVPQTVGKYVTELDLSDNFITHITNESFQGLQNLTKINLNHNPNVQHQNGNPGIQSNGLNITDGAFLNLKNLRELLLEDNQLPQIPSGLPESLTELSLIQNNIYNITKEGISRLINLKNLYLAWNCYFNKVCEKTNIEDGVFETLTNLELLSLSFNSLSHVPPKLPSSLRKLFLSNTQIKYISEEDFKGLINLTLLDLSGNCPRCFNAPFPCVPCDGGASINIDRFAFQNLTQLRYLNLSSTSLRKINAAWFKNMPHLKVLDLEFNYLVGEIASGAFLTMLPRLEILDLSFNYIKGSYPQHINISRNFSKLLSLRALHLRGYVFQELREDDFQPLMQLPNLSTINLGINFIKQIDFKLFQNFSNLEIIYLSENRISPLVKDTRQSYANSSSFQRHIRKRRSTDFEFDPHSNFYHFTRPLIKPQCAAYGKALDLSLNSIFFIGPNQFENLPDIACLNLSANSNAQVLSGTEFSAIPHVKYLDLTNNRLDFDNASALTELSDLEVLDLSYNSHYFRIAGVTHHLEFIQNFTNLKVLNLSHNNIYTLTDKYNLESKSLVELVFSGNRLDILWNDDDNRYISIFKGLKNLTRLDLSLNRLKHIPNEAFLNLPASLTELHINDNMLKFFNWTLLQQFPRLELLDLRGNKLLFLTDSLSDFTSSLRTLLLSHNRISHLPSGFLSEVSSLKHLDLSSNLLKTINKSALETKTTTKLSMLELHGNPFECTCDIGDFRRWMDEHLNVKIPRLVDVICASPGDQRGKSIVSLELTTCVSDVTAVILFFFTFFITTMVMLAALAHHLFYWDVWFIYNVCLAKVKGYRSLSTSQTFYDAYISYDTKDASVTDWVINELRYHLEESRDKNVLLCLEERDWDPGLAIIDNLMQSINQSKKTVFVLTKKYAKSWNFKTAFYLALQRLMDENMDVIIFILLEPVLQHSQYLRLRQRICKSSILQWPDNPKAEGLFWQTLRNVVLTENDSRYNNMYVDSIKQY

[1] = molecular target: T2, Toll-like receptor 9 (Homo sapiens) (UniProt Q9NR96); test: Agonist activity at human TLR9 expressed in HEK293 cells assessed as induction of NF-kappaB activity by measuring extracellular secreted alkaline phosphatase up to 250 uM by HEK-blue reporter gene assay
T2 sequence (whole entry): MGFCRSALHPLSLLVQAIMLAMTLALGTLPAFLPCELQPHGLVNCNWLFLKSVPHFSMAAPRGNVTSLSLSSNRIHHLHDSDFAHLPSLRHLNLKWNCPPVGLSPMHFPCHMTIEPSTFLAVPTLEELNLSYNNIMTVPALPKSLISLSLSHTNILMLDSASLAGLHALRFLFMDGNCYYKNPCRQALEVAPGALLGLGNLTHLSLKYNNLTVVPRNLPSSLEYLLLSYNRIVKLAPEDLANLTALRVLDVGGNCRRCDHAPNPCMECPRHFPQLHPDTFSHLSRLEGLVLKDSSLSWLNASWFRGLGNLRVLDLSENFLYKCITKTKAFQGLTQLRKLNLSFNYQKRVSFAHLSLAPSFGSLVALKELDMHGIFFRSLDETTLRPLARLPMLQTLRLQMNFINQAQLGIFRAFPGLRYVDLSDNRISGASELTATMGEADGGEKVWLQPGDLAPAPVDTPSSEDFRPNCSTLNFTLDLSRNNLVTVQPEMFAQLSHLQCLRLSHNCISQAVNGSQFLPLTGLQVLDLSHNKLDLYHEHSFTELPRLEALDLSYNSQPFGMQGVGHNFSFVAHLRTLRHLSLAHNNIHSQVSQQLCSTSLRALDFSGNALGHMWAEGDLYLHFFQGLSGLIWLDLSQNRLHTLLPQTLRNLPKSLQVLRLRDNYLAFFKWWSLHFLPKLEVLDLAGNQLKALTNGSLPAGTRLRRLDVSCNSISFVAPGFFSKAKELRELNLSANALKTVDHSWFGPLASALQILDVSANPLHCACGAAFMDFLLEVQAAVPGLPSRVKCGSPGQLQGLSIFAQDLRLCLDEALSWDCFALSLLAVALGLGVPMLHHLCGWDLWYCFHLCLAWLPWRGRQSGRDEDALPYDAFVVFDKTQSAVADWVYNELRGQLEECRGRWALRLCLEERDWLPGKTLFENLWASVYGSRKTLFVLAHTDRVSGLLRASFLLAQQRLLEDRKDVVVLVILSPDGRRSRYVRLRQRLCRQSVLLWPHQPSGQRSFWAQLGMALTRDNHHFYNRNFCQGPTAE

[2] = molecular target: T3, Toll-like receptor 8 (Homo sapiens) (UniProt Q9NR97); test: Agonist activity at human TLR8 expressed in HEK293 cells assessed as induction of NF-kappaB activity by measuring extracellular secreted alkaline phosphatase up to 250 uM by HEK-blue reporter gene assay
T3 sequence (whole entry): T1 sequence (Q9NR97 whole entry)

[3] = molecular target: T4, Toll-like receptor 7 (Homo sapiens) (UniProt Q9NYK1); test: Agonist activity at human TLR7 expressed in HEK293 cells assessed as induction of NF-kappaB activity by measuring extracellular secreted alkaline phosphatase up to 250 uM by HEK-blue reporter gene assay
T4 sequence (whole entry): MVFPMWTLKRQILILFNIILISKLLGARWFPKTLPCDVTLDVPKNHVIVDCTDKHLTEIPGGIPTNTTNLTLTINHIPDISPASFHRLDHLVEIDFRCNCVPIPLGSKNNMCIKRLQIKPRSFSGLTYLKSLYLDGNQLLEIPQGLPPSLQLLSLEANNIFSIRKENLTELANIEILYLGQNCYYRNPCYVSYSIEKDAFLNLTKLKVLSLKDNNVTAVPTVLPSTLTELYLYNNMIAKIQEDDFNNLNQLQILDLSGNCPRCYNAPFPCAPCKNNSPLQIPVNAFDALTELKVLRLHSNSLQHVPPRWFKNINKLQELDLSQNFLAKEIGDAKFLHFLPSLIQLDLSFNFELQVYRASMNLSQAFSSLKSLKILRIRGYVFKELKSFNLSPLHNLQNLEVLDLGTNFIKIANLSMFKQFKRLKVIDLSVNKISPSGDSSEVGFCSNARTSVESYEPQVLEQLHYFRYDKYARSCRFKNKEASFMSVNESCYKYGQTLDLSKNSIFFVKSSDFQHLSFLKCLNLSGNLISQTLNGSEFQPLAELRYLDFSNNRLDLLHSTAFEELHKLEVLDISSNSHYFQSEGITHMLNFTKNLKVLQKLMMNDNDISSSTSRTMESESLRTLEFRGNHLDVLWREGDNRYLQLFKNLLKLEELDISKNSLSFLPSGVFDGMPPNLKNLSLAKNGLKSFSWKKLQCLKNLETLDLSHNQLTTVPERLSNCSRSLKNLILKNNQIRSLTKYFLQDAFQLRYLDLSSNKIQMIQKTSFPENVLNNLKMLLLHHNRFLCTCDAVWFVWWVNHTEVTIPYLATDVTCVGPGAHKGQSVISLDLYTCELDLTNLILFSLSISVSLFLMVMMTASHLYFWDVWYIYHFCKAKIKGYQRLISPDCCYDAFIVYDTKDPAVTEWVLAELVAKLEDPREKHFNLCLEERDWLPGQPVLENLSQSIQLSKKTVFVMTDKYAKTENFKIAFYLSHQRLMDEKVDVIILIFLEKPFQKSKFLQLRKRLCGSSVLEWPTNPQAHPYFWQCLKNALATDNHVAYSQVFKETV

[4] = molecular target: Toll-like receptor 5 (Homo sapiens) (UniProt O60602); test: Agonist activity at human TLR5 expressed in HEK293 cells assessed as induction of NF-kappaB activity by measuring extracellular secreted alkaline phosphatase up to 250 uM by HEK-blue reporter gene assay
[5] = molecular target: Toll-like receptor 4 (Homo sapiens) (UniProt O00206); test: Agonist activity at human TLR4 expressed in HEK293 cells assessed as induction of NF-kappaB activity by measuring extracellular secreted alkaline phosphatase up to 250 uM by HEK-blue reporter gene assay
[6] = molecular target: Toll-like receptor 3 (Homo sapiens) (UniProt O15455); test: Agonist activity at human TLR3 expressed in HEK293 cells assessed as induction of NF-kappaB activity by measuring extracellular secreted alkaline phosphatase up to 250 uM by HEK-blue reporter gene assay
Sequence of Toll-like receptor 3 (Homo sapiens) (O15455 whole entry): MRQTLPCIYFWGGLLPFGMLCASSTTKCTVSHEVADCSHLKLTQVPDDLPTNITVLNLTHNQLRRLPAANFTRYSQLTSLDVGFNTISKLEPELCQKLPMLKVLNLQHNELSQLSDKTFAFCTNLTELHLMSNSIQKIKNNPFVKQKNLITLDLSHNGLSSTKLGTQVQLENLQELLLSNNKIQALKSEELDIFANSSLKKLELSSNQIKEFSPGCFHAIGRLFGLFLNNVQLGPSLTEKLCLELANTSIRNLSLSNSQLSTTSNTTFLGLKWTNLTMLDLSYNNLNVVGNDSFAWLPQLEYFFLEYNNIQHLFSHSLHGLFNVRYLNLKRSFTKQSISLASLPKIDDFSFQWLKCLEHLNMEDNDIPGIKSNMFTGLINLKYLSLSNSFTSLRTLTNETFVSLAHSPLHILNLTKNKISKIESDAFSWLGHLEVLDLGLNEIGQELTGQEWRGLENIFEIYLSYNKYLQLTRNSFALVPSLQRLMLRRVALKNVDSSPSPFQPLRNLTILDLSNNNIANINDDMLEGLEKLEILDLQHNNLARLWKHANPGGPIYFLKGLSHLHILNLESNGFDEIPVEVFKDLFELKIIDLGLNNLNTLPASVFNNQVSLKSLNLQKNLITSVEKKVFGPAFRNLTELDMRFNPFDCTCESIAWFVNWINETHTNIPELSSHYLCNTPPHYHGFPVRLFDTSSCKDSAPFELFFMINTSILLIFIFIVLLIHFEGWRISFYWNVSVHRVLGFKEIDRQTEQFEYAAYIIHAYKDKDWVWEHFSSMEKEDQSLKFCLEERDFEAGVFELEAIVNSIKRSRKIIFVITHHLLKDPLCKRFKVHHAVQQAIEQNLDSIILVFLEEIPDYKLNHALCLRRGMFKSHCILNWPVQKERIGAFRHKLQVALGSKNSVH

Sequence of Toll-like receptor 5 (Homo sapiens) (O60602 whole entry): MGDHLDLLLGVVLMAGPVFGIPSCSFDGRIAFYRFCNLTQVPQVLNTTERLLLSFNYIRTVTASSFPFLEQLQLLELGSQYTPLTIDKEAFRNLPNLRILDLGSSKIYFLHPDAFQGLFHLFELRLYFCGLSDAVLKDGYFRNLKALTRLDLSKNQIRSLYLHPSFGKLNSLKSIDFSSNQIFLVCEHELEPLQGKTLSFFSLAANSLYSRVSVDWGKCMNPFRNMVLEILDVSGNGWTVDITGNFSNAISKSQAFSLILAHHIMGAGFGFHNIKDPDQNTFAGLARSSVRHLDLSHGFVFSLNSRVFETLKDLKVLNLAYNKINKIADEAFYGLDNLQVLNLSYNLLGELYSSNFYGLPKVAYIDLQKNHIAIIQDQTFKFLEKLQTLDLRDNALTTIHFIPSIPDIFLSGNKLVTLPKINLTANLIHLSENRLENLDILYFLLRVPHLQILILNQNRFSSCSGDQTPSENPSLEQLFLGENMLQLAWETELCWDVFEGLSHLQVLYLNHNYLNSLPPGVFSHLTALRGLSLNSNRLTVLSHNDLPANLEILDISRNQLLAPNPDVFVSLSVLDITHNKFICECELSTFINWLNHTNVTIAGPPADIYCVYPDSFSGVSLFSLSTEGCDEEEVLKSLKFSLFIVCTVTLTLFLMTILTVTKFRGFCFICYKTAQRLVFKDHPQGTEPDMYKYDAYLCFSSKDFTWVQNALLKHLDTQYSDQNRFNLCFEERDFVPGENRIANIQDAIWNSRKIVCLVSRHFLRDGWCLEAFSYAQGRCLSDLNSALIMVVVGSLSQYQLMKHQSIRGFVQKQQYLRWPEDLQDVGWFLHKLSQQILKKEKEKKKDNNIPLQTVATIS
Sequence of Toll-like receptor 4 (Homo sapiens) (O00206 whole entry): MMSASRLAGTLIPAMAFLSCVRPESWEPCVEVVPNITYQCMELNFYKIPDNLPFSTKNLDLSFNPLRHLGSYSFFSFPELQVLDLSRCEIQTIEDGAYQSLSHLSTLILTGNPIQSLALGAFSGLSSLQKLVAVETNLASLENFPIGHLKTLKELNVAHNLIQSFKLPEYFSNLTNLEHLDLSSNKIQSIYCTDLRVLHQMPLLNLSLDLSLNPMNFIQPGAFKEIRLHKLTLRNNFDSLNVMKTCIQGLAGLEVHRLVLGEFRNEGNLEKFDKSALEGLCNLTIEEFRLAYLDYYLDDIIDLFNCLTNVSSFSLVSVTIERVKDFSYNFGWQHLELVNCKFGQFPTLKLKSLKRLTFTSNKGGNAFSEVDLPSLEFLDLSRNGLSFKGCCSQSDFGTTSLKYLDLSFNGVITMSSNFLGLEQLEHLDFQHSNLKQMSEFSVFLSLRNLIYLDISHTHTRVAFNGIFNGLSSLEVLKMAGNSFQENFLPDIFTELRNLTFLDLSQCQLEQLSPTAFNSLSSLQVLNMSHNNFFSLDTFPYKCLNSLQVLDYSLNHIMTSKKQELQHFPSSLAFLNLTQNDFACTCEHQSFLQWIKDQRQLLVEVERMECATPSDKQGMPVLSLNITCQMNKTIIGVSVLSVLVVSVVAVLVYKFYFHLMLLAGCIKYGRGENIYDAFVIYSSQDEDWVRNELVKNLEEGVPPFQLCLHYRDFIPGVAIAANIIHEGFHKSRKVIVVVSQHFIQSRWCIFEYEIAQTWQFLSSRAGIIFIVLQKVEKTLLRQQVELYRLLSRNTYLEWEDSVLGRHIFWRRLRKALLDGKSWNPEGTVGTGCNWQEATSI

EC50 (Toll-like receptor 8; read-out: EC50): 1.68 µM
SMILES: Cc1ncc(CO)c2c(Nc3ccccc3)c(NCc3ccccc3)oc12

Activity [1]: inactive | Activity [2]: inactive | Activity [3]: inactive | Activity [4]: inactive | Activity [5]: inactive | Activity [6]: inactive
SMILES: c1ccc(CNc2c(-c3ccncc3)nc3ccccn23)cc1

EC50 (Toll-like receptor 8; hek293): Not Active
SMILES: COc1ccc(Nc2oc3c(C)ncc(CO)c3c2Nc2ccccn2)cc1

EC50 (Toll-like receptor 8; hek293): Not Active
SMILES: Cc1cccc(Cl)c1Nc1oc2c(C)ncc(CO)c2c1Nc1ccccn1

EC50 (Toll-like receptor 8; hek293): Not Active
SMILES: Cc1ncc(CO)c2c(Nc3ccccn3)c(NC(C)(C)CC(C)(C)C)oc12

Activity [1]: inactive | Activity [2]: inactive | Activity [3]: inactive | Activity [4]: inactive | Activity [5]: inactive | Activity [6]: inactive
SMILES: Oc1ccccc1-c1nc2ccccn2c1NC1CCCCC1

Activity [1]: inactive | Activity [2]: inactive | Activity [3]: inactive | Activity [4]: inactive | Activity [5]: inactive | Activity [6]: inactive
SMILES: Oc1ccccc1-c1nc2cnccn2c1NC1CCCCC1

EC50 (Toll-like receptor 8; hek293): Not Active
SMILES: Cc1ncc(CO)c(-c2nc3ccccn3c2NC2CCCCC2)c1OCc1ccccc1

Activity [1]: inactive | Activity [2]: inactive | Activity [3]: inactive | Activity [4]: inactive | Activity [5]: inactive | Activity [6]: inactive
SMILES: c1ccn2c(NC3CCCCC3)c(-c3ccncc3)nc2c1

Activity [1]: inactive | Activity [2]: inactive | Activity [3]: inactive | Activity [4]: inactive | Activity [5]: inactive | Activity [6]: inactive
SMILES: c1ccc(CNc2c(-c3ccccc3)nc3ccccn23)cc1

EC50 (Toll-like receptor 8; hek293): Not Active
SMILES: Cc1ncc(CO)c2c(Nc3ccccn3)c(N)oc12

Activity [1]: inactive | Activity [2]: inactive | Activity [3]: inactive | Activity [4]: inactive | Activity [5]: inactive | Activity [6]: inactive
SMILES: CC(C)(C)Nc1c(-c2ccncc2)nc2ccccn12

Activity [1]: inactive | Activity [2]: inactive | Activity [3]: inactive | Activity [4]: inactive | Activity [5]: inactive | Activity [6]: inactive
SMILES: CC(C)(C)Nc1c(-c2ccccc2O)nc2ccccn12

EC50 (Toll-like receptor 8; hek293): Not Active
SMILES: CCOC(=O)CNc1oc2c(C)ncc(CO)c2c1Nc1ccccn1

Activity [1]: inactive | Activity [2]: inactive | Activity [3]: inactive | Activity [4]: inactive | Activity [5]: inactive | Activity [6]: inactive
SMILES: Nc1nccn2c(NC3CCCCC3)c(-c3ccc(-c4ccccc4)cc3)nc12

Activity [1]: inactive | Activity [2]: inactive | Activity [3]: inactive | Activity [4]: inactive | Activity [5]: inactive | Activity [6]: inactive
SMILES: c1ccc(CNc2c(-c3ccncc3)nc3cnccn23)cc1

EC50 (Toll-like receptor 8; read-out: EC50): 2.25 µM
SMILES: CCCCCNc1oc2c(C)ncc(CO)c2c1Nc1ccccc1

EC50 (Toll-like receptor 8; hek293): Not Active
SMILES: Cc1ncc(CO)c2c(Nc3cnccn3)c(NC(C)(C)C)oc12

EC50 (Toll-like receptor 8; read-out: EC50): 9.01 µM
SMILES: CCCC(C)Nc1oc2c(C)ncc(CO)c2c1Nc1ccccn1 (stereo unspecified)

SMILES: CCOP(=O)(CNc1oc2c(C)ncc(CO)c2c1Nc1ccccn1)OCC
EC50 (Toll-like receptor 8; hek293): Not Active

EC50 (Toll-like receptor 8; hek293): Not Active
SMILES: Cc1ncc(CO)c2c(Nc3ccccn3)c(NCCN3CCOCC3)oc12

EC50 (Toll-like receptor 8; read-out: EC50): 7.64 µM
SMILES: Cc1ncc(CO)c2c(Nc3ccccn3)c(NCCC(=O)OC(C)(C)C)oc12

EC50 (Toll-like receptor 8; read-out: EC50): 0.85 µM
SMILES: CCCCCNc1oc2c(C)ncc(CO)c2c1Nc1cccc([N+](=O)[O-])c1

EC50 (Toll-like receptor 8; read-out: EC50): 10.6 µM
SMILES: Cc1ncc(CO)c2c(Nc3cnccn3)c(NC3CCCCC3)oc12

EC50 (Toll-like receptor 8; read-out: EC50): 4.27 µM
SMILES: Cc1ncc(CO)c2c(Nc3ccccn3)c(N[C@@H](C)c3ccccc3)oc12

EC50 (Toll-like receptor 8; hek293): Not Active
SMILES: Cc1ncc(CO)c2c(Nc3ccccn3)c(NC(C)C)oc12

EC50 (Toll-like receptor 8; read-out: EC50): 3.37 µM
SMILES: Cc1ncc(CO)c2c(Nc3ccccn3)c(NCCCCCCNc3oc4c(C)ncc(CO)c4c3Nc3ccccn3)oc12

EC50 (Toll-like receptor 8; read-out: EC50): 6.93 µM
SMILES: Cc1ncc(CO)c2c(Nc3ccccn3)c(NC3CCCCC3)oc12

EC50 (Toll-like receptor 8; read-out: EC50): 0.37 µM
SMILES: CCCCCNc1oc2c(C)ncc(CO)c2c1Nc1cccc(F)c1

EC50 (Toll-like receptor 8; hek293): Not Active
SMILES: Cc1ncc(CO)c2c(Nc3ccccn3)c(NC(C)(C)C)oc12

EC50 (Toll-like receptor 8; read-out: EC50): 9.79 µM
SMILES: Cc1ncc(CO)c2c(Nc3cnccn3)c(NCc3ccccc3)oc12
